In patent US20070015813A1, “Treatment of protein folding disorders” (QUEEN'S UNIVERSITY AT KINGSTON, priority 2005, published 2007):

Assays:
[1] = target: T1, Aβ1-40 (Homo sapiens, UniProt P05067); assay: Circular dichroism studies of Aβ1-40; type: biochemical; conditions: 40 μM Aβ1-40, 200 μM compound, pH 7.4, 37° C.
T1 construct: Aβ^1-40 (AnaSpec, San Jose, Calif., lots 14212, 34862 and 34889); purchased AnaSpec, San Jose, Calif
Description: Aliquots (220 μL) of pretreated Aβ^1-40 (40 μM in 20 mM Tris-HCl, pH 7.4) were added directly to 1 mm quartz circular dichroism (CD) cells, followed by 2.2 μL compound (of varying concentration) in methanol or methanol alone (controls). Solutions were incubated at 37° C. for up to 6 days. CD scans were performed on a J-810 spectropolarimeter (obtained from Jasco Corporation, Tokyo, Japan) between 190 and 250 nm, with a resolution of 0.1 nm and bandwidth of 1 nm. Ten scans were obtained for each reading. Spectra had background CD of the buffer subtracted and were left unsmoothed. Readings were performed at 37° C.
FIG. 6 depicts circular dichroism (CD) of Aβ^1-40 alone (A) and in the presence of 0j (B) and morin (C). Conditions: 40 μM Aβ^1-40, 200 μM compound (B,C), pH 7.4, Tris-HCl (20 mM), 1% MeOH. Prior to experiment, Aβ^1-40 pretreated with 1,1,1,3,3,3-hexafluoroisopropanol (HFIP).

[2] = target: T2, Aβ1-42 (Homo sapiens, UniProt P05067); assay: Kinetic Thioflavin T (ThT) aggregation assay of Aβ1-42; type: biochemical; conditions: 20 μM Aβ1-42, kinetic ThT assay
T2 construct: Aβ^1-42 (AnaSpec, lot 45685); purchased AnaSpec
T2 sequence (P05067 672-713 limits assumed): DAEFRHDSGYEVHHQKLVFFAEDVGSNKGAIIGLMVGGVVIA
Description: Aβ^1-42 (1.0 mg) was either pretreated with HFIP in the same manner as Aβ^1-40 or this step was omitted. After removing HFIP, when appropriate, Aβ^1-42 was dissolved in 1% NH3 (aq.) (200 μL) and sonicated for 1 min. The solution was diluted with Tris-HCl (5.7 mL, 20 mM, pH 7.4), the pH adjusted to 7.4 with concentrated HCl (aq.) and the solution filtered using a syringe filter (0.2 μm). Prior to use in the ThT aggregation assay, the solution was diluted with an equal volume of 8 μM Thioflavin T (ThT) in Tris-HCl (20 mM, pH 7.4, 300 mM NaCl).
(§1) Aliquots (200 μL) of Aβ^1-40, Aβ^1-42, tau441 or α-synuclein with ThT or ThS were added to wells of a black polystyrene 96-well plate, followed by 2 μL of a compound in DMSO (various concentrations), or DMSO alone (controls). For α-synuclein, sodium dodecyl sulfate solution (2.0 μL, 30 mM) was also added to each well to induce aggregation. Incubations were performed in triplicate and were taken to contain 20 μM Aβ^1-40 or Aβ^1-42, 6 μM tau441 or 4 μM α-synuclein. Plates were covered with clear polystyrene lids and incubated at 37° C. in a GENios microplate reader obtained from Tecan Group Limited, Mannedorf, Zurich. For Aβ^1-40, tau441 and α-synuclein, fluorescence readings (λex=450 nm, λem=480 nm) were taken every 15 min., after first shaking at high intensity for 15 sec. and allowing to settle for 10 sec. before each reading. For Aβ^1-42, readings were taken every 5 min.
(§2) The absorbance of each compound was measured under the conditions used during testing, though on ten times the scale (2 mL), to ensure no significant quenching interfered with the assay. This step was also used to identify whether compounds were completely soluble under testing conditions.
FIG. 7 depicts inhibition of Aβ^1-42 aggregation by various synthesized bi-aromatic compounds and positive controls morin (Ono K, Yoshiike Y, Takashima A, Hasegawa K, Naiki H, Yamada M. 2003. J Neurochem 87:172-81) and RS-0406 (Walsh D M, Townsend M, Podlisny M B, Shankar G M, Fadeeva J V, Agnaf O E, Hartley D M, Selkoe D J. 2005. J Neurosci 25:2455-62) in the kinetic ThT assay. Same conditions as for Aβ^1-40, FIG. 1. Compound concentrations were 100 μM in (A), 20 μM in (B), except for RS-0406, which was tested at 100 μM, and 20 μM in (C).

[3] = target: T1, Aβ1-40; assay: Kinetic Thioflavin T (ThT) aggregation assay of Aβ1-40; type: biochemical; conditions: 20 μM Aβ1-40, 4 μM ThT, pH 7.4, 37° C., kinetic ThT assay
Description: Aβ^1-40 (1.0 mg) was pre-treated in a 1.5 mL microfuge tube with 1,1,1,3,3,3-hexafluoroisopropanol (HFIP, 1 mL) and sonicated for 20 min. to disassemble any pre-formed Aβ aggregates. The HFIP was removed with a stream of argon and the Aβ dissolved in Tris base (5.8 mL, 20 mM, pH 10.5). The pH was adjusted to 7.4 with concentrated HCl and the solution filtered using a syringe filter (0.2 μm). This solution was used for circular dichroism studies or diluted with an equal volume of 8 μM Thioflavin T (ThT) in Tris-HCl (20 mM, pH 7.4, 300 mM NaCl) for the ThT aggregation assay.
as §1, §2
FIG. 1 depicts the inhibition of Aβ^1-40 aggregation, as measured by Thioflavin T (ThT) fluorescence, by directly-linked 3,3′-bis-indolyl compounds 0c-i (A), other bis-indoles (B), aza-indole-containing compounds (C), indole-phenols (D), indole-5-carboxylic acid-containing bi-aromatics (E), and naphthol-containing bi-aromatics (F). Aggregation conditions: 20 μM Aβ^1-40 incubated in covered black 96-well polystyrene microplates with 4 μM ThT, pH 7.4, Tris-HCl (20 mM), 150 mM NaCl, 1% DMSO. Compound concentrations are 200 μM (A,B, except where otherwise noted), 100 μM (E), 20 μM (F), or as indicated (C,D). Plates heated at 37° C. in Tecan Genios microplate reader. All incubations performed in triplicate. Prior to experiment, Aβ^1-40 pretreated with 1,1,1,3,3,3-hexafluoroisopropanol (HFIP). Fluorescence readings: fluorescence measured every 15 min. (λex=450 nm, λem=480 nm) after shaking for 15 sec. and pausing 10 sec. before taking measurement. Values are the mean of three replicates. Error bars, omitted for clarity in (B), represent standard deviation of the mean.

[4] = test system: patients with dementia; conditions: one month, once daily dosing, ratings of behaviour and functional abilities; cited from earlier work
[5] = test system: patients with mild to moderate Alzheimer's disease (AD); assay: Phase IV double-blind randomized placebo-controlled clinical trial of L-tryptophan (Trp); type: in vivo, human
Description: A phase IV clinical trial of L-tryptophan (Trp) was carried out to evaluate the amino acid's effect on cognitive abilities in patients with mild to moderate Alzheimer's disease (AD). An earlier trial has been performed which studied Trp administration in patients suffering from AD [Bentham, P W. International Clinical Psychopharmacology, 1990, 5: 261-72]. The present trial expects the possible binding of Trp to the HHQK region of Aβ [D Giulian et al. (1998). Journal of Biological Chemistry 273:29719-26] and subsequent disruption of Aβ plaque formation, whereas the earlier trial was based on neurotransmitter replacement therapy. By administering Trp, levels of its metabolite […], better known as serotonin, were expected to increase, thereby countering deficits of the neurotransmitter experienced by those suffering from AD [Siegel, G J; Agranoff, B W; Albers, R W; Molinoff, P B, Basic Neurochemistry. Fifth ed. 1994, New York: Raven Press, 1054 pp]. Also providing motivation for the trial may have been earlier accounts that Trp was seen to benefit elderly patients with mental disorders [Shaw, D M; Tidmarsh, S F; Karajgi, B M; Sweeney, E A; Williams, S; Elameer, M; Twining, C. British Journal of Psychiatry, 1981, 139: 580-2, Lehmann, J; Persson, S; Walinder, J; Wallin, L. Acta Psychiatrica Scandinavica, 1981, 64: 123-31].
Twelve patients were enrolled in the current clinical trial. Patients were administered 1 g Trp (n=8) or placebo (n=4) twice a day for six months, and their cognitive abilities were assessed, using standardized tests, at baseline, three months and six months. All enrollment and testing was carried out at the Kingston General Hospital, Kingston, Ontario, Canada, under the supervision of the principal investigator, D. F. Weaver, M.D., Ph.D (the protocol is attached as Appendix A). The primary endpoint of the double-blind trial was to determine whether patients receiving Trp outperformed the controls, either by experiencing an improvement in cognition or a reduction in deterioration in cognitive abilities relative to the placebo group.
Eligible participants were those who met the clinical criteria of probable Alzheimer's disease as described in the Diagnostic and Statistical Manual of Mental Disorders, fourth edition (DSM-IV) [Anonymous, Diagnostic and Statistical Manual of Mental Disorders, 4th Edition (DSM-IV). 1994, Washington, D.C.: American Psychiatric Association] and in the National Institute of Neurologic and Communicative Disorders and Stroke and the Alzheimer's Disease Related Disorders Association (NINCDS-ADRDA) [McKhann, G; Drachman, D; Folstein, M; Katzman, R; Price, D; Stadlan, E M. Neurology, 1984, 34: 939-44]. Inclusion criteria also included: mild to moderate severity of dementia, as reflected by a Mini-Mental State Examination (MMSE) [Folstein, M F; Folstein, S E; McHugh, P R. J Psychiatr Res, 1975, 12: 189-98] score of 14 to 26; minimum one-year duration of symptoms; minimum age of 50 years; living at home or in an institution provided they had caregivers capable of attending each clinic visit and ensuring the administration of medication; able to perform the psychometric tests required; reasonably good nutritional status; vital signs (blood pressure and heart rate in sitting and standing positions), urinalysis, physical examination, and neurological evaluation must yield results within normal limits or determined as not clinically significant by the study physician for the patient's age and sex.
This study was a 6-month, double-blind randomized trial in which eligible participants were randomly assigned to receive either Trp (1000 mg, twice daily) or an identical-appearing placebo. Recruiters were unaware of the assignment. […]

[6] = test system: patients suffering from AD; conditions: ten patients, three months; cited from earlier work
[7] = test system: patients with advanced senile dementia; conditions: daily Trp administration (24 mg/kg); cited from earlier work
[8] = Trp 1 g twice a day (n = 8), 6 months, negative change indicates improvement
[9] = Trp 1 g twice a day (n = 8), 6 months, positive change indicates improvement
[10] = Trp (n = 8) vs. placebo (n = 4), 3 months
[11] = Trp (n = 8) vs. placebo (n = 4), 6 months

T1 sequence (P05067 672-711 limits assumed): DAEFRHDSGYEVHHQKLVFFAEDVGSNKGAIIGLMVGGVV

## O=C(O)c1ccc2[nH]cc(-c3c[nH]c4ccc(O)cc34)c2c1 [0j, 3-(5-Hydroxy-indol-3-yl)-indole-5-carboxylic Acid]
[1]
  random coil (RC)→β-sheet transition of Aβ1-40 by circular dichroism: inhibited to a greater extent
[2]
  inhibition of Aβ1-42 aggregation, as measured by ThT fluorescence: inhibiting aggregation
[3]
  inhibition of Aβ1-40 aggregation, as measured by Thioflavin T (ThT) fluorescence: inhibition

## N[C@@H](Cc1c[nH]c2ccccc12)C(=O)O [Trp, L-tryptophan]
[4]
  benefit in patients with dementia: of no benefit
[5]; Trp 1 g twice a day (n = 8), 3 months, negative change indicates improvement
  ADAS-Cog, mean (SE) change from baseline after 3 months: −0.8 (0.9)
[5]; Trp 1 g twice a day (n = 8), 3 months, positive change indicates improvement
  MMSE, mean (SE) change from baseline after 3 months: 0.8 (0.4)
[5]; [8]
  ADAS-Cog, mean (SE) change from baseline after 6 months: −2.8 (1.4)
  FAQ, mean (SE) change from baseline after 6 months: 3.2 (2.0)
  NPI, mean (SE) change from baseline after 6 months: 3 (3)
[5]; [9]
  Clock-drawing, mean (SE) change from baseline after 6 months: 1.1 (0.4)
  DAD, mean (SE) change from baseline after 6 months: 1.5 (1.8)
  MMSE, mean (SE) change from baseline after 6 months: 1.8 (0.5)
[5]; Trp 1 g twice a day (n = 8), score at 6 months, not change from baseline, lower score indicates improvement
  ADCS-CGIC, mean (SE) score at 6 months: 3.6 (0.3)
[5]; Trp 1 g twice a day, 6 months
  adverse events reported by patients: No adverse events
[5]; [10]
  ADAS-Cog, treatment difference (Trp vs. placebo) after 3 months: 1.3
  MMSE, treatment difference (Trp vs. placebo) after 3 months: 2.0
[5]; [11]
  ADAS-Cog, treatment difference (Trp vs. placebo) after 6 months: −6.3
  ADCS-CGIC, treatment difference (Trp vs. placebo) at 6 months: 2.9
  Clock-drawing, treatment difference (Trp vs. placebo) after 6 months: 2.9
  DAD, treatment difference (Trp vs. placebo) after 6 months: 12.8
  FAQ, treatment difference (Trp vs. placebo) after 6 months: −2.0
  MMSE, treatment difference (Trp vs. placebo) after 6 months: 5.0
  NPI, treatment difference (Trp vs. placebo) after 6 months: −19
[5]; Trp group (two patients), 6 months
  patients depressed (Cornell Depression Index score of >5) after 6 months of treatment: 25%
[5]; at baseline or at 6 months
  sleep problems (score of >4 on the Pittsburgh Sleep Quality): No sleep problems
[6]
  correlation between the increase in Trp plasma levels and the increase in cognitive test scores: statistically significant correlation
[7]
  patients with “unequivocal improvement in blind global assessment”: six of 29
